According to US6849632B2, “Heteroaryl alkyl piperazine derivatives” (CV Therapeutics, Inc., priority 2000, dated 2005):
Where two headings read alike, the source gives them in different places.

Legend:
[1] = Metabolic stability, incubation with human liver S-9 fractions; format: in vitro ADME; details: for Liver S9 Stability Factor: % parent remaining after 30 min at 37 C with human liver S9, divided by average % ranolazine remaining (57%)
Method: Metabolic Stability: As a measure of metabolic stability the compounds of this invention were incubated with human liver S-9 microsomal fractions. After, 30 minutes at 37 C, the amount of parent drug remaining was determined using LC-mass spec. The response factors for each compound was determined by establishing a standard curve and using an internal standard during the analysis of the samples. An average of five experiments for percentage of ranolazine remaining at the 30 minute time point is 57%. The compounds of this invention were assayed as described in the protocol below and the percentage of parent remaining was divided by the average % of ranolazine remaining (57%) affording a metabolic stability factor. A compound with a stability number greater than 1.2 has a better stability than ranolazine in the liver S-9 assay. A compound with a stability number between 1.2 and 0.8 has an equivalent stability in the liver S-9 assay.
The purpose of this experiment is to compare the percentages remaining for compounds of this invention with the percentage remaining for ranolazine after 30 minutes of incubation with human liver S9 fractions.
The following reagents were used; Potassium phosphate, 0.5M pH 7.4 (incubation buffer), kept at room temperature; 0.05M MgCl^2 kept at 4° C.; β-Nicotinamide adenine dinucleotide phosphate, tetrasodium salt, reduced form (NADPH), 0.02M solution in water (˜16.6 mg/mL) from Sigma Lot #79H7044 prepared on day of use. 1 mM of ranolazine or Compounds 43, 45, 47, 52, 70, 74, 76, 78, and 80 in ACN further diluted to obtain 100 μM in 10% ACN; Human S9 stock: 20 mg/mL from Gentest.
Incubation mixtures were prepared as follows:
Combine all components with incubation buffer and re-pipette 200 μL/tube+25 μL of the compound being tested along with 25 μL of S-9.
After 5 min of pre-incubation at 37° C., at 0 and 30 min after starting the reaction, a 50 μl aliquot of the incubation mixture was removed and added to 100 μL of 9:1 acetonitrile:methanol containing the internal standard.
The mixture was centrifuged and a 100 μL aliquot of the supernatant was diluted in 1 mL of solvent C (0.1% Formic Acid in water). Then samples were analyzed for change between the ratio of compound to internal standard at time zero and 30 minutes by LC/MS (injected 10 μL).
Samples were analyzed for the starting compounds and potential metabolite/s by LC/MS using an internal standard and an ODS-C18 column with a flow rate of 0.25 ml/min.

[2] = system: mitochondrial fatty acid oxidation using palmitoyl CoA as substrate; assay: Palmitoyl CoA oxidation in isolated rat heart mitochondria; format: biochemical; details: for Inhibition of mitochondrial fatty acid oxidation using palmitoyl CoA as substrate - % of Control, 100 μm (%): 100 μm compound, 15 min at 30° C.
Method: Rat heart mitochondria were isolated by the method of Nedergard and Cannon (Methods in Enzymol. 55, 3, 1979). Palmitoyl CoA oxidation—The Palmityl CoA oxidation was carried out in a total volume of 100 micro liters containing the following agents: 110 mM KCl, 33 mM Tris buffer at pH 8, 2 mM KPi, 2 mM MgCl2, 0.1 mM EDTA, 14.7 microM defatted BSA, 0.5 mM malic acid, 13 mM carnitine, 1 mM ADP, 52 micrograms of mitochondrial protein, and 16 microM 1-C14 palmitoyl CoA (Sp. Activity 60 mCi/mmole; 20 microCi/ml, using 5 microliters per assay). The compounds of this invention were added in a DMSO solution at the following concentrations: 100 microM, and 50 microM. In each assay, a DMSO control was used. After 15 min at 30° C., the enzymatic reaction was centrifuged (20,000 g for 1 min), and 70 microliters of the supernatant was added to an activated reverse phase silicic acid column (approximately 0.5 ml of silicic acid). The column was eluted with 2 ml of water, and 0.5 ml of the eluent was used for scintillation counting to determine the amount of C^14 trapped as C^14 bicarbonate ion.

[3] = Table 1, read-out: IC50 (μm), inhibition of mitochondrial fatty acid oxidation using palmitoyl CoA as substrate
[4] = Table IA, read-out: Effect on Palmitoyl CoA Oxidation (IC50)

| percentage of parent drug remaining at the 30 minute time point ([1]; human liver S-9, 30 minutes at 37 C, average of five experiments) [%] | Liver S9 Stability Factor [1] | IC50 [2, 3] [µM] | IC50 [2, 4] [µM] | SMILES | Inhibition of mitochondrial fatty acid oxidation using palmitoyl CoA as substrate - % of Control, 100 μm (%) [2] [%] |
| --- | --- | --- | --- | --- | --- |
|  | 0.8 | ~20 | 15 | Cc1nc2cc(OCC(O)CN3CCN(CC(=O)Nc4c(C)cccc4C)CC3)ccc2s1 (centres unmarked) [Compound 45, N-(2,6-dimethylphenyl)-2-{4-[2-hydroxy-3-(2-methyl-benzothiazol-5-yloxy)-propyl]-piperazin-1-yl}acetamide] | 87 |
|  | 1.5 | ~125 |  | Cc1cccc(C)c1NC(=O)CN1CCN(CC(O)COc2ccc3ncsc3c2)CC1 (centres unmarked) [Compound 47, 2-{4-[3-(benzothiazol-6-yloxy)2-hydroxy-propyl]-piperazin-1-yl}-N-(2,6-dimethylphenyl)-acetamide] | 70 |
|  | 0.6 |  |  | Cc1cccc(C)c1NC(=O)CN1CCN(CC(O)COc2ccc3ncccc3c2)CC1 (centres unmarked) [Compound 78, N-(2,6-dimethylphenyl)-2-{4-[2-hydroxy-3-(quinolin-6-yloxy)-propyl]-piperazin-1-yl}acetamide] | 42 |
|  | 0.5 |  |  | Cc1ccc2ccc(OCC(O)CN3CCN(CC(=O)Nc4c(C)cccc4C)CC3)cc2n1 (centres unmarked) [Compound 80, N-(2,6-dimethylphenyl)-2-{4-[2-hydroxy-3-(2-methyl-quinolin-7-yloxy)-propyl]-piperazin-1-yl}acetamide] | 22 |

Further lines, the molecule ahead of its results:

| SMILES | percentage of parent drug remaining at the 30 minute time point ([1]; human liver S-9, 30 minutes at 37 C, average of five experiments) [%] | Liver S9 Stability Factor [1] | IC50 [2, 3] [µM] | IC50 [2, 4] [µM] | Inhibition of mitochondrial fatty acid oxidation using palmitoyl CoA as substrate - % of Control, 100 μm (%) [2] [%] |
| --- | --- | --- | --- | --- | --- |
| COc1ccccc1OCC(O)CN1CCN(CC(=O)Nc2c(C)cccc2C)CC1 (racemic) [ranolazine, (±)-N-(2,6-dimethylphenyl)-4-[2-hydroxy-3-(2-methoxyphenoxy)-propyl]-1-piperazineacetamide, reference compound] | 57 |  |  |  |  |
| Cc1cccc(C)c1NC(=O)CN1CCN(CC(O)COc2nc3ccccc3s2)CC1 (centres unmarked) [Compound 43, 2-{4-[3-(benzothiazol-2-yloxy)-2-hydroxy-propyl]-piperazin-1-yl}-N-(2,6-dimethylphenyl)acetamide] |  | 0.6 |  |  | 21 |
| Cc1cccc(C)c1NC(=O)CN1CCN(CC(O)COc2cccc3[nH]c(C(N)=O)cc23)CC1 (centres unmarked) [Compound 46, 4-(3-{4-[(2,6-dimethylphenylcarbamoyl)-methyl]-piperazin-1-yl}-2-hydroxypropoxy)-1H-indole-2-carboxylic acid amide] |  | 1.1 | ~125 |  | 61 |
| Cc1nc2cc(OCC(O)CN3C(C)CN(CC(=O)Nc4c(C)cccc4C)CC3C)ccc2s1 (stereo not drawn) [Compound 52, N-(2,6-dimethylphenyl)-2-{4-[2-hydroxy-3-(2-methyl-benzothiazol-5-yloxy)-propyl]-3,5-cis dimethyl-piperazine-1-yl}acetamide] |  | 0.5 | ~1 | 0.7 | 95 |
| Cc1cccc(C)c1NC(=O)CN1CCN(CC(O)COc2cnc3ccccc3n2)CC1 (centres unmarked) [Compound 70, N-(2,6-dimethylphenyl)-2-{4-[2-hydroxy-3-(quinoxalin-2-yloxy)-propyl]-piperazin-1-yl}acetamide] |  | 0.1 |  |  |  |
| Cc1cccc(C)c1NC(=O)CN1CCN(CC(O)COc2ccnc3ccccc23)CC1 (centres unmarked) [Compound 74, N-(2,6-dimethylphenyl)-2-{4-[2-hydroxy-3-(quinolin-4-yloxy)-propyl]-piperazin-1-yl}acetamide] |  | 1.0 |  |  | 12 |
| Cc1cccc(C)c1NC(=O)CN1CCN(CC(O)COc2cccc3cnccc23)CC1 (centres unmarked) [Compound 76, N-(2,6-dimethylphenyl)-2-{4-[2-hydroxy-3-(isoquinolin-5-yloxy)-propyl]-piperazin-1-yl}acetamide] |  | 0.8 |  |  | 26 |
